In ChEMBL document CHEMBL5370533 (Eur J Med Chem, 2023):
Activity calls are given as the source filed them. No cut-off for these calls is given here.

Assays:
U-937 = assay: Antiproliferative activity against human U-937 cells expressing low level wild type FLT3 assessed as inhibition of cell growth; format: functional, cell-based
[1] = Tmax in Beagle dog at […], po; format: ADME, organism-based, Canis lupus familiaris; details: in vivo, dose 1.5 mg/kg
[2] = target: Receptor-type tyrosine-protein kinase FLT3 (Homo sapiens) (UniProt P36888); assay: Inhibition of FLT3 (unknown origin); details: concentration not given here
MV4-11 [3] = assay: animal or person; format: functional, Homo sapiens; details: Mus musculus, MV4-11, 336 h, route po, time 2 weeks
Description: Antitumor activity against human MV4-11 cells xenografted in nu/nu mouse assessed as inhibition of tumor growth at 50 mg/kg, po qd for 2 weeks by vernier caliper analysis

[4] = target: Receptor-type tyrosine-protein kinase FLT3 (Homo sapiens, UniProt P36888, F691L/ITD); assay: Binding affinity to FLT3 ITD/F691L mutant (unknown origin)
[5] = target: Receptor-type tyrosine-protein kinase FLT3 (Homo sapiens) (UniProt P36888); assay: Inhibition of FLT3 in human MV4-11 cells assessed as decrease in phosphorylated STAT5 level incubated for 24 hrs by immunoblot analysis; format: cell-based; details: dose 20-600 nM
[6] = target: Receptor-type tyrosine-protein kinase FLT3 (Homo sapiens, UniProt P36888, D835V/ITD); assay: Binding affinity to FLT3 ITD/D835V mutant (unknown origin)
[7] = target: Receptor-type tyrosine-protein kinase FLT3 (Homo sapiens, UniProt P36888, K663Q); assay: Binding affinity to FLT3 K663Q mutant (unknown origin)
[8] = target: Receptor-type tyrosine-protein kinase FLT3 (Homo sapiens, UniProt P36888, R834Q); assay: Binding affinity to FLT3 R834Q mutant (unknown origin)
[9] = Clearance in human liver microsomes measured per mg protein by LC-MS/MS analysis; format: ADME, Microsome; details: read-out: CLH
MV4-11 [10] = assay: Antitumor activity against human MV4-11 cells xenografted in nu/nu mouse assessed as inhibition of tumor growth at 25 mg/kg, po qd for 2 weeks by vernier caliper analysis; format: functional; details: MV4-11, 336 h
BaF3 = assay: cells; format: functional, cell-based; details: Mus musculus, BaF3, 72 h
Description: Antiproliferative activity against mouse BaF3 cells harboring FLT3 ITD mutant assessed as inhibition of cell growth incubated for 72 hrs

[11] = target: CDK4/Cyclin D3 (Homo sapiens) (UniProt P11802+P30281); assay: Inhibition of CDK4/Cyclin D3 (unknown origin); format: protein-complex assay; details: concentration not given here
MOLM-13 = assay: Antiproliferative activity against human MOLM-13 cells harboring FLT3 ITD mutant assessed as inhibition of cell growth; format: functional, cell-based
[12] = target: Mast/stem cell growth factor receptor Kit (Homo sapiens) (UniProt P10721); assay: Inhibition of c-Kit (unknown origin)
Sequence of Mast/stem cell growth factor receptor Kit (Homo sapiens) (P10721 whole entry): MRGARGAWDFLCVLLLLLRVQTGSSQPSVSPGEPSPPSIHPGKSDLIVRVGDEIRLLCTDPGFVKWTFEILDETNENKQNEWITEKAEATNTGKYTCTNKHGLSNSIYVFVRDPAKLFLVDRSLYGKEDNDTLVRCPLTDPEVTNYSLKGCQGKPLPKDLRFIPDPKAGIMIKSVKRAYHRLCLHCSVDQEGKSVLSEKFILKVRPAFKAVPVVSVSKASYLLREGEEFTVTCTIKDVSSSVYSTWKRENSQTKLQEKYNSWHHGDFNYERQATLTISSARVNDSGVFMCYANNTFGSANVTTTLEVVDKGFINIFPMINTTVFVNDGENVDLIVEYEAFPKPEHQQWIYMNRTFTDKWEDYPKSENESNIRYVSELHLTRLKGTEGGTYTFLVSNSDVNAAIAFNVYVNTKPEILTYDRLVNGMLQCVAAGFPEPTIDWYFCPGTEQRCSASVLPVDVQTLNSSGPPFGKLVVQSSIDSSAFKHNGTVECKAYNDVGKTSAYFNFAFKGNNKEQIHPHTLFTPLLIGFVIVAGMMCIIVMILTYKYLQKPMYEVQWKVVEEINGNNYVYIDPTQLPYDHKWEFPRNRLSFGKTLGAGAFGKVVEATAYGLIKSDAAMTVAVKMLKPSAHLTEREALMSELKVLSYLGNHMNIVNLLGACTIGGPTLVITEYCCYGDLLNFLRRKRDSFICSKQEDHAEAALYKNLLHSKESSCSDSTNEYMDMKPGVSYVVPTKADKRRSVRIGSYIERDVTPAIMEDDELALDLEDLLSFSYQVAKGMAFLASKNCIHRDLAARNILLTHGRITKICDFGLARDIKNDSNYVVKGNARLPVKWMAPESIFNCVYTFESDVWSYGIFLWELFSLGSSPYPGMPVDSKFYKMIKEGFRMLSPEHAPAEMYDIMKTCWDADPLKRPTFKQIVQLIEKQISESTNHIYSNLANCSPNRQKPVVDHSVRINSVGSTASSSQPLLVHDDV

[13] = target: Receptor-type tyrosine-protein kinase FLT3 (Homo sapiens) (UniProt P36888); assay: Inhibition of FLT3 in human MV4-11 cells assessed as decrease in phosphorylated ERK level incubated for 24 hrs by immunoblot analysis; format: cell-based; details: dose 20-600 nM
[14] = AUC(0 to t) in rat at 10 mg/kg, po; format: ADME, organism-based; set-up: dose 10 mg/kg, route po; details: in vivo
[15] = target: T1, Receptor-type tyrosine-protein kinase FLT3 (Homo sapiens, UniProt P36888); assay: Inhibition of human FLT3 using EAIYAAPFAKKK and [gamma-33P]-ATP as substrate pretreated for 20 mins followed by [gamma-33P]-ATP addition and measured after 120 mins in presence of 10 uM ATP by radiometric Hot-SpotSM Kinase assay
T1 sequence (P36888 whole entry): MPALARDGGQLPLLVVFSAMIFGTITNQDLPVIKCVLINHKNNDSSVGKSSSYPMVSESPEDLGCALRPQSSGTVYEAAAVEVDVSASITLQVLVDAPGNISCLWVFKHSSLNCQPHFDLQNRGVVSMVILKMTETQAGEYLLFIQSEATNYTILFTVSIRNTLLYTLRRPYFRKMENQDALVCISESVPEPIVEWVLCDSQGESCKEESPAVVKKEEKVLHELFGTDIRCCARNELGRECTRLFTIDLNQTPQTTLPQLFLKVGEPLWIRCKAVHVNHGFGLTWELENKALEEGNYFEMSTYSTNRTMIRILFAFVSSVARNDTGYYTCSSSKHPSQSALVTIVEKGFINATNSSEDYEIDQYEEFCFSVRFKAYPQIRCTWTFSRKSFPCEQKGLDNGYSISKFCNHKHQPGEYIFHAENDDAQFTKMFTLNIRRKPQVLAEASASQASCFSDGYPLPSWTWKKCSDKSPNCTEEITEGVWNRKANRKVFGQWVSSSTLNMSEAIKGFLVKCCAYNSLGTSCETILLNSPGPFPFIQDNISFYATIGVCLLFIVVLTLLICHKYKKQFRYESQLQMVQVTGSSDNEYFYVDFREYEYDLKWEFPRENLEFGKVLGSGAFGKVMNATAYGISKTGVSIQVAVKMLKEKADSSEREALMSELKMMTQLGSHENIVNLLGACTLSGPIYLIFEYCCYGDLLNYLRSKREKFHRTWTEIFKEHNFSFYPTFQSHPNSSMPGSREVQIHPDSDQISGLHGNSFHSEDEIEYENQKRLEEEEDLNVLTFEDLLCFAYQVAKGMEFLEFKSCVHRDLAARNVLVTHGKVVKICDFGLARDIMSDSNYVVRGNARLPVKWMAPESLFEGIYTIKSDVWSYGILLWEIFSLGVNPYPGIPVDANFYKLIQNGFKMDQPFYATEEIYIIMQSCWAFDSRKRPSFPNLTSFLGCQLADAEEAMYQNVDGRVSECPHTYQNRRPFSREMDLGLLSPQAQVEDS

ACHN = assay: Antiproliferative activity against human ACHN cells assessed as inhibition of cell growth; format: functional
[16] = Oral bioavailability in Beagle dog at […]; format: ADME, organism-based, Canis lupus familiaris; details: in vivo, dose 1.5 mg/kg
[17] = Half life in Beagle dog at […], po; format: ADME, organism-based, Canis lupus familiaris; details: in vivo, dose 1.5 mg/kg
[18] = target: Receptor-type tyrosine-protein kinase FLT3 (Homo sapiens) (UniProt P36888); assay: Inhibition of FLT3 in human MV4-11 cells assessed as decrease in phosphorylated FLT3 level incubated for 24 hrs by immunoblot analysis; format: cell-based; details: dose 20-600 nM

O=C(Nc1ccc(N2CCNCC2)cc1)c1n[nH]cc1Nc1cc(Oc2ccccc2)ncn1
IC50 (U-937): 692 nM
Tmax [1]: 1.67 h
inhibition [2]: 99.6%
inhibition in vivo at 50 mg/kg (MV4-11 [3]): 94%
Kd [4]: 1.61 nM
inhibition [5]: Dose-Dependent Effect
Kd [6]: 0.58 nM
Kd [7]: 121 nM
Kd [8]: 66.5 nM
microsomal CLint [9]: 7.4 µL/min/mg
inhibition in vivo at 25 mg/kg (MV4-11 [10]): 94.2%
IC50 (BaF3): 39 nM
inhibition [11]: 79.2%
IC50 (MOLM-13): 16.3 nM
inhibition [12]: Active
inhibition [13]: Dose-Dependent Effect
AUC(0-t) [14]: 1080 ng·h/mL
IC50 [15]: 0.62 nM
GI50 (ACHN): < 1000 nM
bioavailability [16]: 72.7%
half-life [17]: 11.1 h
inhibition [18]: Dose-Dependent Effect
